Data: patent publication US20110150836A1, “METHODS OF TREATING HBV AND HCV INFECTION” (Gilead Sciences, Inc., priority 2009, published 2011)

Tested on: interferon-alpha
Assay: Induction of interferon alpha in cynomolgus monkeys, multiple oral doses once per day (serum ELISA)
Format: in vivo
Protocol: Additionally, multiple doses of Compound A were administered to Cynomolgus monkeys, and the concentrations of interferon alpha were measured. Compound A was dosed orally once per day to Cynomolgus monkeys (3 animals per dose group), and serum was collected on Days 1, 7 and 15 at 4 and 8 hours after dosing. Serum samples were analyzed for levels of interferon-alpha by ELISA. Prior to dosing on Day 1, serum interferon-alpha levels were below the level of detection in each animal.

CCCCOc1nc(N)c2nc(O)n(Cc3cccc(CN4CCCC4)c3)c2n1 [Compound A, 6-amino-2-butoxy-9-(3-(pyrrolidin-1-ylmethyl)benzyl)-9H-purin-8-ol]
Average peak serum Interferon-alpha levels on designated day (oral 0.005 mg/kg once per day, Day 1): 3233 pg/mL | Average peak serum Interferon-alpha levels on designated day (oral 0.005 mg/kg once per day, Day 7): 6709 pg/mL | Average peak serum Interferon-alpha levels on designated day (oral 0.005 mg/kg once per day, Day 15): 24053 pg/mL | Average peak serum Interferon-alpha levels on designated day (oral 0.05 mg/kg once per day, Day 1): 87570 pg/mL | Average peak serum Interferon-alpha levels on designated day (oral 0.05 mg/kg once per day, Day 7): 12175 pg/mL | Average peak serum Interferon-alpha levels on designated day (oral 0.05 mg/kg once per day, Day 15): 42648 pg/mL | induction of serum interferon-alpha (oral once per day, 0.005 and 0.05 mg/kg, Days 1, 7, 15): Interferon-alpha was induced
